ChEMBL document CHEMBL5046248, “New Pqs Quorum Sensing System Inhibitor as an Antibacterial Synergist against Multidrug-Resistant Pseudomonas aeruginosa” (J Med Chem, 2022)
pIC50: −log10 of the molar value. Values after ≈ are worked out from the molar mass of the structure shown. Active and inactive are the calls of the source. No cut-off for these calls is given here.

How the values were obtained:
Pseudomonas aeruginosa [1] = experiment: Antibacterial activity against Pseudomonas aeruginosa PAO1 assessed as inhibition of biofilm formation for 24 hrs by crystal violet staining based assay; format: functional, organism-based; settings: PAO1, 24 h
H9c2 [2] = experiment: Cytotoxicity against rat H9c2 cells assessed as reduction in cell viability at 50 uM incubated for 24 hrs by MTT assay; format: toxicity, cell-based; settings: h9c2, 24 h
Pseudomonas aeruginosa [3] = experiment: Synergistic antibacterial activity against multidrug-resistant Pseudomonas aeruginosa 1121 assessed as reduction in bacterial viability after 12 hrs in presence of 1/2 MIC of ciprofloxacin; format: functional, organism-based
Pseudomonas aeruginosa [4] = experiment: Synergistic antibacterial activity against Pseudomonas aeruginosa PAO1 assessed as reduction in bacterial viability after 12 hrs in presence of 1/2 MIC of ciprofloxacin; format: functional, organism-based
Pseudomonas aeruginosa [5] = experiment: Antibiofilm activity against Pseudomonas aeruginosa PAO1 assessed as inhibition rate at 0.625 uM for 24 hrs by crystal violet staining based assay relative to control; format: functional
Pseudomonas aeruginosa [6] = experiment: Antibiofilm activity against Pseudomonas aeruginosa PAO1 assessed as suppression of biofilm formation for 24 hrs by fluorescent dye SYTO9 and propidium iodide staining based confocal laser microscopic analysis; format: functional, organism-based; settings: dose 0.625-10 µM
Pseudomonas aeruginosa [7] = experiment: Inhibition of quorum sensing system in Pseudomonas aeruginosa PAO1 assessed as effect on elastase production for 24 hrs; settings: dose 1.25-20 µM
Pseudomonas aeruginosa [8] = experiment: Inhibition of quorum sensing system in Pseudomonas aeruginosa PAO1 assessed as effect on rhamnolipid production at 1.25 to 20 uM for 24 hrs; settings: dose 1.25-20 µM
Pseudomonas aeruginosa [9] = experiment: Inhibition of quorum sensing system in Pseudomonas aeruginosa PAO1 assessed as decrease of pyocyanin production at 1.25 to 20 uM for 24 hrs; settings: dose 1.25-20 µM
Pseudomonas aeruginosa [10] = experiment: Inhibition of quorum sensing system in Pseudomonas aeruginosa PAO1 assessed as reduction of pyocyanin expression in flask at 1.25 to 20 uM for 24 hrs; settings: dose 1.25-20 µM
Pseudomonas aeruginosa [11] = experiment: Inhibition of beta-galactosidase expression in Pseudomonas aeruginosa PAO1-mini-[…]-lacZ strain at 1.25 to 20 uM; format: functional; settings: dose 1.25-20 µM
Pseudomonas aeruginosa [12] = experiment: Inhibition of elastase expression in Pseudomonas aeruginosa PAO1-mini-[…]-lasB-lacZ strain assessed as decrease in beta-galactosidase at 1.25 to 20 uM; format: functional; settings: PAO1-mini-[…]-lasB-[…], dose 1.25-20 µM
Pseudomonas aeruginosa [13] = experiment: Inhibition of rhamnolipid expression in Pseudomonas aeruginosa PAO1-mini-[…]-rhlA-lacZ strain assessed as decrease in beta-galactosidase at 1.25 to 20 uM; format: functional; settings: PAO1-mini-ctx-[…]-lacZ, dose 1.25-20 µM
Pseudomonas aeruginosa [14] = experiment: Inhibition of pyocyanin expression in Pseudomonas aeruginosa PAO1-mini-[…]-pqsA-lacZ strain assessed as decrease in beta-galactosidase at 1.25 to 20 uM; format: functional; settings: PAO1-mini-ctx-pqsA-lacZ, dose 1.25-20 µM
Pseudomonas aeruginosa [15] = experiment: Antibiofilm activity against Pseudomonas aeruginosa PAO1 assessed as increase in pyoverdine production at 40 uM by fluorescence assay; format: functional, organism-based
Pseudomonas aeruginosa [16] = experiment: Antibiofilm activity against Pseudomonas aeruginosa PAO1 assessed as effect on pyochelin production fluorescence at 1.25 to 20 uM by fluorescence assay; format: functional, organism-based; settings: dose 1.25-20 µM
Pseudomonas aeruginosa [17] = experiment: Antibiofilm activity against Pseudomonas aeruginosa PAO1 assessed as inhibition of swarming motility for 16 hrs by motility assay; format: functional, organism-based; settings: dose 1.25-20 µM
Pseudomonas aeruginosa [18] = experiment: Antibiofilm activity against Pseudomonas aeruginosa PAO1 assessed as inhibition of swimming motility for 16 hrs by motility assay; format: functional, organism-based; settings: dose 1.25-20 µM
Pseudomonas aeruginosa [19] = experiment: Antibiofilm activity against Pseudomonas aeruginosa PAO1 assessed as inhibition of twitching motility for 16 hrs by motility assay; format: functional, organism-based; settings: dose 1.25-20 µM
Pseudomonas aeruginosa [20] = experiment: Antibacterial activity against Pseudomonas aeruginosa PAO1 infected rat H9c2 cells assessed as reduction in virulence mediated cytotoxicity by measuring increase in cell viability by MTT assay; format: functional, organism-based; settings: dose 1.25-20 µM
Pseudomonas aeruginosa [21] = experiment: Antibacterial activity against Pseudomonas aeruginosa PAO1 infected rat H9c2 cells assessed as reduction in virulence mediated cytotoxicity by measuring cell survival rate at 20 uM by MTT assay (reference value: 36%); format: functional
Pseudomonas aeruginosa [22] = experiment: In vivo antibacterial activity against Pseudomonas aeruginosa PAO1-gfp infected in tail injured zebrafish model assessed as reduction in mortality at 10 to 20 uM measured upto 50 hrs of post fertilization; format: functional, organism-based; settings: dose 10-20 µM, time hrs <=50
Pseudomonas aeruginosa [23] = experiment: In vivo antibacterial activity against Pseudomonas aeruginosa PAO1-gfp infected in tail injured zebrafish model assessed as increase in survival of zebrafish at 10 to 20 uM measured upto 50 hrs of post fertilization; format: functional, organism-based; settings: dose 10-20 µM, time hrs <=50
Pseudomonas aeruginosa [24] = experiment: In vivo antibacterial activity against Pseudomonas aeruginosa PAO1-gfp infected in tail injured zebrafish model assessed as reduction in bacterial burden at 20 uM measured after 24 hrs of post infection; format: functional, organism-based
H9c2 [25] = experiment: Cytotoxicity against rat H9c2 cells assessed as reduction in cell viability at up to 25 uM incubated for 24 hrs by MTT assay; format: toxicity, cell-based; settings: h9c2, 24 h
Pseudomonas aeruginosa [26] = experiment: Synergistic antibacterial activity against multidrug-resistant Pseudomonas aeruginosa 1129 assessed as reduction in bacterial viability after 12 hrs in presence of 1/2 MIC of ciprofloxacin; format: functional, organism-based
Pseudomonas aeruginosa [27] = experiment: Synergistic antibacterial activity against multidrug-resistant Pseudomonas aeruginosa 1167 assessed as reduction in bacterial viability after 12 hrs in presence of 1/2 MIC of ciprofloxacin; format: functional, organism-based
Pseudomonas aeruginosa [28] = experiment: Synergistic antibacterial activity against multidrug-resistant Pseudomonas aeruginosa FB assessed as reduction in bacterial viability after 12 hrs in presence of 1/2 MIC of ciprofloxacin; format: functional, organism-based
Pseudomonas aeruginosa [29] = experiment: Synergistic antibacterial activity against Pseudomonas aeruginosa PAO1 assessed as reduction in bacterial viability after 12 hrs in presence of tobramycin; format: functional, organism-based
Pseudomonas aeruginosa [30] = experiment: Synergistic antibacterial activity against multidrug-resistant Pseudomonas aeruginosa 1129 assessed as reduction in bacterial viability after 12 hrs in presence of tobramycin; format: functional, organism-based
Pseudomonas aeruginosa [31] = experiment: Synergistic antibacterial activity against multidrug-resistant Pseudomonas aeruginosa FB assessed as reduction in bacterial viability after 12 hrs in presence of tobramycin; format: functional, organism-based
Pseudomonas aeruginosa [32] = experiment: Synergistic antibacterial activity against Pseudomonas aeruginosa PAO1 assessed as reduction in bacterial viability after 12 hrs in presence of colistin E; format: functional, organism-based
Pseudomonas aeruginosa [33] = experiment: Synergistic antibacterial activity against multidrug-resistant Pseudomonas aeruginosa 1121 assessed as reduction in bacterial viability after 12 hrs in presence of colistin E; format: functional, organism-based
Pseudomonas aeruginosa [34] = experiment: Synergistic antibacterial activity against multidrug-resistant Pseudomonas aeruginosa 1129 assessed as reduction in bacterial viability after 12 hrs in presence of colistin E; format: functional, organism-based
Pseudomonas aeruginosa [35] = experiment: Synergistic antibacterial activity against multidrug-resistant Pseudomonas aeruginosa 1167 assessed as reduction in bacterial viability after 12 hrs in presence of colistin E; format: functional, organism-based
Pseudomonas aeruginosa [36] = experiment: Synergistic antibacterial activity against multidrug-resistant Pseudomonas aeruginosa FB assessed as reduction in bacterial viability after 12 hrs in presence of colistin E; format: functional, organism-based
Pseudomonas aeruginosa [37] = experiment: Antibacterial activity against Pseudomonas aeruginosa PAO1 assessed as bacterial growth inhibition by broth microdilution method; format: functional
Pseudomonas aeruginosa [38] = experiment: Antibacterial activity against Pseudomonas aeruginosa 1121 assessed as bacterial growth inhibition by broth microdilution method; format: functional
Pseudomonas aeruginosa [39] = experiment: Antibacterial activity against Pseudomonas aeruginosa 1129 assessed as bacterial growth inhibition by broth microdilution method; format: functional
Pseudomonas aeruginosa [40] = experiment: Antibacterial activity against Pseudomonas aeruginosa 1167 assessed as bacterial growth inhibition by broth microdilution method; format: functional
Pseudomonas aeruginosa [41] = experiment: Antibacterial activity against Pseudomonas aeruginosa FB assessed as bacterial growth inhibition by broth microdilution method; format: functional

CCCCn1c(C)cc(=O)c(O)c1CNS(=O)(=O)c1ccc(OC)cc1
pIC50 (Pseudomonas aeruginosa [1]): 4.39

CCCCn1c(C)cc(=O)c(O)c1CNC(=O)c1ccc(OC)cc1
Activity (H9c2 [2]): Toxic
pIC50 (Pseudomonas aeruginosa [1]): 5.35
Activity (Pseudomonas aeruginosa [3]): Dose-Dependent Effect
Activity (Pseudomonas aeruginosa [4]): Dose-Dependent Effect
inhibition at 0.625 µM (Pseudomonas aeruginosa [5]): > 28%
Activity (Pseudomonas aeruginosa [6]): Dose-Dependent Effect
Activity (Pseudomonas aeruginosa [7]): inactive
Activity (Pseudomonas aeruginosa [8]): inactive
Activity (Pseudomonas aeruginosa [9]): Dose-Dependent Effect
Activity (Pseudomonas aeruginosa [10]): Active
Activity (Pseudomonas aeruginosa [11]): inactive
Activity (Pseudomonas aeruginosa [12]): inactive
Activity (Pseudomonas aeruginosa [13]): inactive
Activity (Pseudomonas aeruginosa [14]): Dose-Dependent Effect
Activity (Pseudomonas aeruginosa [15]): Active
Activity (Pseudomonas aeruginosa [16]): inactive
Activity (Pseudomonas aeruginosa [17]): Dose-Dependent Effect
Activity (Pseudomonas aeruginosa [18]): Dose-Dependent Effect
Activity (Pseudomonas aeruginosa [19]): Dose-Dependent Effect
Activity (Pseudomonas aeruginosa [20]): Dose-Dependent Effect
Activity (Pseudomonas aeruginosa [21]): 79%
Activity (Pseudomonas aeruginosa [22]): Active
Activity (Pseudomonas aeruginosa [23]): Active
Activity (Pseudomonas aeruginosa [24]): Active
Activity (H9c2 [25]): Non-Toxic
Activity (Pseudomonas aeruginosa [26]): Dose-Dependent Effect
Activity (Pseudomonas aeruginosa [27]): Dose-Dependent Effect
Activity (Pseudomonas aeruginosa [28]): Dose-Dependent Effect
Activity (Pseudomonas aeruginosa [29]): Dose-Dependent Effect
Activity (Pseudomonas aeruginosa [30]): Dose-Dependent Effect
Activity (Pseudomonas aeruginosa [31]): Dose-Dependent Effect
Activity (Pseudomonas aeruginosa [32]): Dose-Dependent Effect
Activity (Pseudomonas aeruginosa [33]): Dose-Dependent Effect
Activity (Pseudomonas aeruginosa [34]): Dose-Dependent Effect
Activity (Pseudomonas aeruginosa [35]): Dose-Dependent Effect
Activity (Pseudomonas aeruginosa [36]): Dose-Dependent Effect

CCCn1c(C)cc(=O)c(O)c1CNC(=O)c1cccc(OC)c1
pIC50 (Pseudomonas aeruginosa [1]): 4.25

CCn1c(C)cc(=O)c(O)c1CNS(=O)(=O)c1ccc(OC)cc1
pIC50 (Pseudomonas aeruginosa [1]): < 4.00

CCCn1c(C)cc(=O)c(O)c1CNc1ccc(OC)cc1
pIC50 (Pseudomonas aeruginosa [1]): 4.26

CCCn1c(C)cc(=O)c(O)c1CNS(=O)(=O)c1ccc(OC)cc1
pIC50 (Pseudomonas aeruginosa [1]): 4.22

COc1ccc(C(=O)NCc2cc(=O)c(O)cn2C)cc1
pIC50 (Pseudomonas aeruginosa [1]): < 4.00

CCCCCCCC(=O)NCc1cc(=O)c(O)cn1O
pIC50 (Pseudomonas aeruginosa [1]): < 4.00

CCCCn1c(C)cc(=O)c(O)c1CNC(=O)Cc1ccc(F)cc1
pIC50 (Pseudomonas aeruginosa [1]): < 4.00

CCCn1c(C)cc(=O)c(O)c1CNC(=O)c1ccccc1OC
pIC50 (Pseudomonas aeruginosa [1]): 4.20

CCCCCCC(=O)NCc1c(O)c(=O)cc(C)n1CCC
pIC50 (Pseudomonas aeruginosa [1]): < 4.00

CCCCCCC(=O)NCc1cc(=O)c(O)cn1C
pIC50 (Pseudomonas aeruginosa [1]): < 4.00

CCCCCC(=O)NCc1c(O)c(=O)cc(C)n1CCCC
pIC50 (Pseudomonas aeruginosa [1]): 4.46

O=C(Cc1ccc(F)cc1)NCc1cc(=O)c(O)cn1O
pIC50 (Pseudomonas aeruginosa [1]): < 4.00

CCCCn1c(C)cc(=O)c(O)c1CNC(=O)c1ccccc1OC
pIC50 (Pseudomonas aeruginosa [1]): 4.55

CCCn1c(C)cc(=O)c(O)c1CNC(=O)c1ccc(OC)cc1
pIC50 (Pseudomonas aeruginosa [1]): 5.28

CCCCn1c(C)cc(=O)c(O)c1CNC(=O)c1cccc(OC)c1
pIC50 (Pseudomonas aeruginosa [1]): 4.51

NC[C@H]1O[C@H](O[C@H]2[C@H](O)[C@@H](O[C@H]3O[C@H](CO)[C@@H](O)[C@H](N)[C@H]3O)[C@H](N)C[C@@H]2N)[C@H](N)C[C@@H]1O [TOBRAMYCIN]
MIC (Pseudomonas aeruginosa [37]): 5 µg/mL (≈ 10.7 µM)
MIC (Pseudomonas aeruginosa [38]): 10 µg/mL (≈ 21.4 µM)
MIC (Pseudomonas aeruginosa [39]): 10 µg/mL (≈ 21.4 µM)
MIC (Pseudomonas aeruginosa [40]): 10 µg/mL (≈ 21.4 µM)
MIC (Pseudomonas aeruginosa [41]): 10 µg/mL (≈ 21.4 µM)

CCCCCCC(=O)NCc1cc(=O)c(O)cn1O
pIC50 (Pseudomonas aeruginosa [1]): < 4.00

CCCCCC(=O)NCc1c(O)c(=O)cc(C)n1CCC
pIC50 (Pseudomonas aeruginosa [1]): < 4.00

CCn1c(C)cc(=O)c(O)c1CNc1ccc(OC)cc1
pIC50 (Pseudomonas aeruginosa [1]): < 4.00

COCCn1c(C)cc(=O)c(O)c1CNC(=O)c1ccc(C(F)(F)F)cc1
pIC50 (Pseudomonas aeruginosa [1]): < 4.00
